# Laboratory results as given in patent publication US20250228864A1, “THERAPIES FOR THE TREATMENT OF INFLAMMATORY BOWEL DISEASE” (Gilead Sciences, Inc., priority 2023, published 2025).
# Assays:
# Format in all cases: in vivo
# [1] = First-in-human Part B: plasma PK after once-daily dosing of Formula (III) for 14 days
# Text: Part B (MAD Cohorts 6-10) consisted of up to 5 randomized, blinded (Sponsor-unblinded), placebo-controlled, MAD cohorts. Within each cohort 12 unique subjects were randomized 3:1 to receive blinded Formula (III) (N=9) or PTM Formula (III) (N=3). All subjects within each cohort received Formula (III) at the same dosing frequency.
# Subjects enrolled in Part B received either blinded Formula (III) or PTM Formula (III) twice daily or once daily for 14 days. All subjects within each cohort received study drug at the same dosing frequency.
# All study drugs in Part B (except Cohort 10 which will be administered under fasting conditions) were administered in the morning and evening following a standard meal (twice daily dosing), or only in the morning (daily dosing) following a standard meal except for Cohort 10.
# Concentrations of Formula (III) and the metabolite, in plasma samples were determined using fully validated high-performance liquid chromatography-tandem mass spectrometry (LC-MS/MS) bioanalytical methods. All samples were analyzed in the timeframe supported by frozen stability storage data. The assays for Formula (III), and the metabolite were performed using methods validated by QPS, LLC (Newark, DE, USA).
# [2] = system: IL-10−/− mouse colitis model; assay: Example 3: Formula (III) and anti-p40 combination in IL-10−/− mouse colitis model; conditions: 21 days; Formula (III) 0.005% in chow, anti-p40 IP; vs no treatment control / either pathway alone
# Method: The following experiments were run to evaluate the effects of a combination treatment of Formula (III) in combination with an anti-p40 antibody on the IL-10−/− mouse colitis model compared to the single treatment alone.
# (§1) Female IL-10 deficient C57CL/6 mice (aged 12 weeks at study inception) were used in this study. All animal experiments were conducted according to Swiss animal well fare law and approved by the local animal welfare authority of Zurich County (Tierversuchskommission Zürich, Zurich, Switzerland, License No. ZH256-2014).
# Mice were administered either standard chow diet (Harlan Teklad Global Diets 2014, TD2014) or standard chow diet plus 0.005% of Formula (III) in the chow. Formula (III)'s schedule was ad libitum while the anti-p40 antibody was administered via an intraperitoneal injection on day 1 and then every four days for three weeks.
# The compound was added and mixed to the chow powder at 0.125% concentration, anti-p40 antibody was diluted in phosphate buffered saline (2 mg/mL) (anti-p40 antibody is a murine surrogate of ustekinumab) then dosed at either 2 mg/kg (low dose) or 4 mg/kg (high dose) every four days by intraperitoneal injection. […] The mice were then treated for three (3) weeks (21-days). On Day 21, mice were sacrificed, blood and tissue samples were collected for further analysis.
# Experiments were conducted as describe in Experiment 2.
# [3] = system: IL10−/− knockout mouse colitis model; assay: Example 2: efficacy in mouse IL10−/− knockout colitis model; conditions: 21 days
# Method: The following study was conducted to evaluate the efficacy of an α4β7 integrin small molecule inhibitor relative to no treatment and to an IL-12/IL-23 inhibitor (anti-p40 antibody a murine surrogate of ustekinumab). […] Endpoint analysis included measurement of colon lamina propria lymphocytes, and histology scoring of the colon tissue.
# Mice were treated for three (3) weeks with Formula (III) mixed with food chow (0.125%), and 4 mg/kg anti-p40 dosed intraperitoneally every four (4) days […].
# as §1
# Mice were administered either standard chow diet (Harlan Teklad Global Diets 2014, TD2014) or standard chow diet plus 0.125% of in chow. Formula (III) schedule was ad libitum while the Anti-p40 antibody was administered via intraperitoneal injection on day 1 and then every four days for three weeks.
# The compound was added and mixed into the chow powder at 0.125% concentration, anti-p40 antibody was diluted in phosphate buffered saline (2 mg/mL) (anti-p40 antibody, a murine surrogate of ustekinumab) then dosed at 4 mg/kg every four days by intraperitoneal injection. […] The mice were then treated for three (3) weeks (21-days). On Day 21, mice were sacrificed, blood and tissue samples were collected for further analysis. While untreated IL-10−/− knockout mice progressively lost body weight and manifested colitis activity (measured by weight loss, stool frequency and stool consistency).
# Mice were anesthetized with and mixture of ketamine (90-120 mg/kg-1 body weight, Vétoquinol, Bern, Switzerland) and Xylazine (8 mg/kg-1 body weight, Bayer, Lyssach, Switzerland) by intraperitoneal injection. Colonoscopies were performed as described in Becker C, Fantini M C, Neurath M F. High resolution colonoscopy in live mice. Nat. Protoc, 2006; 1:2900-4. The procedure was recorded with a Karl Storz Tele Pack Pal 20,043,020 (Karl Storz Endoskope, Tuttlingen, Germany). Scoring of the colonoscopy was done in accordance with the Murine Endoscopic Index of Colitis Severity (MEICS) scoring system as described in Becker C., Fantini M. C., Neurath M. F. High resolution colonoscopy in live mice. Nat. Protoc. 2006; 1:2900-2904. doi: 10.1038/nprot.2006.446. The following five (5) parameters were assessed: (1) transparency of the colon; (2) changes of the vascular pattern; (3) fibrin visible; (4) granularity of the mucosal surface; and (5) stool consistency.
# Tissue Extraction: Mouse colons were extracted and fixed in 4% formalin, embedded in paraffin and then cut into 5-μm sections. The colon sections where then deparaffinized and stained with hematoxylin and eosin.
# Mouse colons were extracted and opened up in a longitudinal orientation, placed in a 15 mL falcon tube, rinsed with PBS (Gibco, Thermo Fisher Scientific, Carlsbad, CA, USA). The colon was then cut into 2 mm^2 sized samples and washed with 2% FBS HBSS (Thermo Fisher Scientific). The supernatant was discarded, resuspended in HBSS supplemented with 2 mM EDTA (Thermo Fisher Scientific) and then incubated at 37° C. on a shaker (300 rpm) for 15 minutes. Upon completion of the incubation the tubes were vigorously shaken, the supernatant was carefully discarded, and the sample was washed with HBSS. Next, the samples were resuspended in a digestion buffer consisting of Dispase (0.6 mg/mL, Gibco) supplemented Collagenase IV (0.4 mg/mL; Clostridium Histolyticum, Sigma-Aldrich). The solution was incubated for 20 minutes on a 37° C. shaker (300 rpm). Upon completion, the samples were homogenized by passing the solution through a 18+1.5-gauge needle. Samples where then stained with TH1, TH17, Neutrophils, and Treg antibodies followed by preforming Flow cytometry analysis of the mice immune cells of the colon tissue. […]
smiles,measurement,setting,value
"CCOC(=O)[C@H](Cc1ccc(-n2c(=O)c3ccncc3n(C)c2=O)c2ncccc12)NC(=O)c1c(C)cc(N2CCOC[C@@H]2C(F)(F)F)cc1F (atropisomer, axis not shown) [Formula (III)]","metabolite multiple-dose exposure, 200-mg tablet fasting versus 500-mg nonfasting capsule",[1],slightly lower
same,body weight loss,[2],improved body weight loss
same,"disease activity (weight loss, stool frequency, stool consistency)",[3]; 0.125% in chow ad libitum,reduced disease activity
same,body weight loss,"[3]; 0.125% in chow ad libitum, vs untreated IL-10−/− mice",ameliorated body weight loss
same,TH1 cells in colon tissue (flow cytometry),[3]; 0.125% in chow,significantly reduced
same,TH17 cells in colon tissue (flow cytometry),[3]; 0.125% in chow,significantly reduced
same,frequency of the Treg in colon tissue (flow cytometry),[3]; 0.125% in chow,without affecting
same,neutrophils in colon tissue (flow cytometry),[3]; 0.125% in chow,significantly reduced
same,histopathology score,"[3]; 0.125% in chow, compared to the non-treatment group",reduced histopathology score
same,colonoscopy score (MEICS),"[3]; 0.125% in chow, over the non-treatment group",significantly improved
same,proinflammatory cytokines detected in the blood,[3],reduced proinflammatory cytokines
same,intestine inflammation,[3]; single agent,significantly ameliorates
